{"source": "patent US20130072899A1", "about": "“Pharmaceutical Formulations for Iontophoretic Delivery of Gallium” (Nitric BloTherapeutics, Inc., priority 2008, published 2013)", "key": {"[1]": {"test": "Gallium permeated through human cadaver skin, receptor analysis", "assay_type": "in vitro ADME", "details": "any of the conditions tested", "experimental": "Anodal and cathodal iontophoresis (0.3 mA/cm^2 for 15 min) were carried out using full thickness human cadaver skin in Franz diffusion cells. Ga nitrate solutions (0.15% in 0.05M citrate buffer, or a saturated solution of 16.6% in 0.1M/1M citrate buffer) at different pH conditions (2 to 8) were evaluated."}, "[2]": {"test": "Infinite dose mass balance study, gallium recovery from human skin", "details": "for Ga mass detected per skin surface area: nitrate hydrate", "method": "An infinite dose mass balance study was performed using full thickness human skin. Small Franz cells were set up as previously described and the mass and thickness of skin section recorded. […] Cells were then treated with either […] iontophoresis or received no iontophoresis (n=6 for each). […] The skin samples were removed and reweighed.\n(Cells dismantled after 0 and 60 h post iontophoresis)."}, "[3]": {"details": "Ionto (400 μA, 60 min) 0 h, 1.5% w/v"}, "[4]": {"details": "Ionto (400 μA, 60 min) 60 h, 1.5% w/v"}}, "note": "Values joined by “and” are separate entries in the source; they are usually repeats but may differ in a detail not shown here. Equal values may be shown once. Read-outs that look alike come from different tables or passages of the source."}
{"smiles": "O=[N+]([O-])[O-].O=[N+]([O-])[O-].O=[N+]([O-])[O-].[Ga+3]", "note": "[gallium nitrate, Gallium (III) nitrate hydrate]", "values": [{"measurement": "Ga in the receptor", "setting": "[1]", "value": "not detected"}, {"measurement": "Ga mass detected, full thickness human skin", "setting": "[2]; [3]", "value": "0.0788 ± 0.043", "unit": "mg"}, {"measurement": "Ga mass detected, skin corrected for binding", "setting": "[2]; [3]", "value": "0.127 ± 0.043", "unit": "mg"}, {"measurement": "Ga mass detected per skin surface area", "setting": "[2]; Ionto (400 μA, 60 min) 0 h, 1.5% w/v, listed as Ga", "value": "0.200 ± 0.069", "unit": "mg/cm^2"}, {"measurement": "Ga mass detected per skin surface area", "setting": "[2]; [3]", "value": "0.200±0.069", "unit": "mg/cm^2"}, {"measurement": "Ga mass detected, full thickness human skin", "setting": "[2]; [4]", "value": "0.328 ± 0.371", "unit": "mg"}, {"measurement": "Ga mass detected, skin corrected for binding", "setting": "[2]; [4]", "value": "0.391 ± 0.373", "unit": "mg"}, {"measurement": "Ga mass detected per skin surface area", "setting": "[2]; Ionto (400 μA, 60 min) 60 h, 1.5% w/v, listed as Ga", "value": "0.617 ± 0.059", "unit": "mg/cm^2"}, {"measurement": "Ga mass detected per skin surface area", "setting": "[2]; [4]", "value": "0.617±0.059", "unit": "mg/cm^2"}, {"measurement": "Ga mass detected, full thickness human skin", "setting": "[2]; Passive 0 h, 1.5% w/v", "value": "0.07 ± 0.036", "unit": "mg"}, {"measurement": "Ga mass detected, skin corrected for binding", "setting": "[2]; Passive 0 h, 1.5% w/v", "value": "0.111 ± 0.035", "unit": "mg"}, {"measurement": "Ga mass detected per skin surface area", "setting": "[2]; Passive 0 h, 1.5% w/v, listed as Ga", "value": "0.178 ± 0.058", "unit": "mg/cm^2"}, {"measurement": "Ga mass detected per skin surface area", "setting": "[2]; Passive 0 h, 1.5% w/v", "value": "0.178±0.058", "unit": "mg/cm^2"}, {"measurement": "Ga mass detected, full thickness human skin", "setting": "[2]; Passive 60 h, 1.5% w/v", "value": "0.0745 ± 0.108", "unit": "mg"}, {"measurement": "Ga mass detected, skin corrected for binding", "setting": "[2]; Passive 60 h, 1.5% w/v", "value": "0.137 ± 0.109", "unit": "mg"}, {"measurement": "Ga mass detected per skin surface area", "setting": "[2]; Passive 60 h, 1.5% w/v, listed as Ga", "value": "0.221 ± 0.176", "unit": "mg/cm^2"}, {"measurement": "Ga mass detected per skin surface area", "setting": "[2]; Passive 60 h, 1.5% w/v", "value": "0.221±0.176", "unit": "mg/cm^2"}, {"measurement": "increase in skin gallium content, iontophoretic vs passive", "setting": "[2]; after 60 hours, 1.5% w/v", "value": "three fold"}, {"measurement": "total gallium in the skin vs levels in the receiver compartment", "setting": "[2]; both passive and iontophoretic cells", "value": "ten-fold higher"}, {"measurement": "increase in detected gallium level in the skin, iontophoresis vs passive", "setting": "[2]; immediately after iontophoresis", "value": 12, "unit": "%"}, {"measurement": "increase in gallium flux with 60 min iontophoresis compared to passive", "setting": "[2]; receiver compartment and recovery from the skin", "value": "approximate three-fold increase"}, {"measurement": "gallium skin deposition", "setting": "0.15% in 0.05M citrate buffer, pH 2, cathodal 0.3 mA/cm^2 15 min", "value": "277.90 ± 51.24", "unit": "ng/mg"}, {"measurement": "gallium skin deposition", "setting": "0.15% in 0.05M citrate buffer, pH 3, cathodal 0.3 mA/cm^2 15 min", "value": "113.16 ± 17.65", "unit": "ng/mg"}, {"measurement": "gallium skin deposition", "setting": "0.15% in 0.05M citrate buffer, pH 4, cathodal 0.3 mA/cm^2 15 min", "value": "60.5 ± 21.11", "unit": "ng/mg"}, {"measurement": "gallium skin deposition", "setting": "0.15% in 0.05M citrate buffer, pH 6, cathodal 0.3 mA/cm^2 15 min", "value": "51.16 ± 6.65", "unit": "ng/mg"}, {"measurement": "maximum skin deposition expressed as concentration", "setting": "16.6% gallium nitrate in 1M citrate at pH 8, 0.3 mA/cm^2 for 15 min", "value": 0.78, "unit": "mg/mL"}, {"measurement": "gallium skin deposition", "setting": "16.6% in 0.1 M citrate buffer, pH 2, anodal", "value": "91.74 ± 13.09", "unit": "ng/mg"}, {"measurement": "gallium skin deposition", "setting": "16.6% in 0.1 M citrate buffer, pH 4, anodal", "value": "74.42 ± 22.31", "unit": "ng/mg"}, {"measurement": "gallium skin deposition", "setting": "16.6% in 0.1 M citrate buffer, pH 6, anodal", "value": "62.19 ± 23.76", "unit": "ng/mg"}, {"measurement": "gallium skin deposition", "setting": "16.6% in 0.1 M citrate buffer, pH 6, cathodal", "value": "99.62 ± 36.44", "unit": "ng/mg"}, {"measurement": "gallium skin deposition", "setting": "16.6% in 1M citrate buffer, pH 6, cathodal", "value": "163.72 ± 36.72", "unit": "ng/mg"}, {"measurement": "gallium skin deposition", "setting": "16.6% in 1M citrate buffer, pH 7, cathodal", "value": "250.49 ± 39.76", "unit": "ng/mg"}, {"measurement": "gallium skin deposition", "setting": "16.6% in 1M citrate buffer, pH 8, cathodal, nitrate hydrate", "value": "329.52 ± 36.10 ng/mg and 330 ng/mg"}]}
